Test systems include UO-31; SK-MEL-28; U-251; K562; UACC-62; SK-OV-3; SR; OVCAR-5; MDA-MB-231; HT-29; MDA-MB-435; OVCAR-8; HOP-62; SNB-19; CCRF-CEM; RXF 393; OVCAR-3; M14; SF-295; HCC 2998.
Holding throughout (test): NCI-60 cell line screen, 48 h

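Values below derive from 48-hour exposures of cells grown in 96-well plates, with endpoints linearly interpolated between the two concentrations bracketing the appropriate inhibition level. At the GI50, growth is halved.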 Activity calls are given as the source filed them. Cut-off read from the data, not from the text of the source: active = GI50 up to about 1.1 µM and inactive = higher.

As to `CC(C)(C)c1cc(C(C)(C)C)c2sc(=S)oc2c1O`, the GI50 in the assay with UO-31 was 4.12 µM (inactive); in the assay with SK-MEL-28 it was 8.09 µM (inactive); with U-251 it was 6.3 µM (inactive); in the assay with K562, 15 µM (inactive); with UACC-62, 10.4 µM (inactive); in the assay on SK-OV-3, 17.9 µM (inactive). The GI50 in the assay on SR is 3.18 µM (inactive); in the assay on OVCAR-5 it was 7.46 µM (inactive); in the assay on MDA-MB-231, 13.6 µM (inactive); in the assay on HT-29, 14.9 µM (inactive); in the assay on MDA-MB-435, 8.17 µM (inactive); in the assay on OVCAR-8, 6.34 µM (inactive). The GI50 in the assay on HOP-62 was 14.9 µM (inactive); with SNB-19 it was 12.7 µM (inactive); in the assay on CCRF-CEM, 3.76 µM (inactive); in the assay on RXF 393, 4.69 µM (inactive); in the assay on OVCAR-3, 5.14 µM (inactive); in the assay on M14, 10.4 µM (inactive). The GI50 in the assay on SF-295 is 10.5 µM (inactive).

In the case of `O=C1N2CCc3c([nH]c4ccccc34)C23CC2CCCC12S3` (configuration not stated), the GI50 with UO-31 is 32 µM (inactive); in the assay on SK-MEL-28, 45.3 µM (inactive); with U-251, > 50 µM (inactive); in the assay on K562, > 50 µM (inactive); in the assay on UACC-62, 36.7 µM (inactive); in the assay with SK-OV-3, > 50 µM (inactive). The GI50 was 28.9 µM (inactive) in the assay on SR; > 50 µM (inactive) in the assay with OVCAR-5; > 50 µM (inactive) in the assay on MDA-MB-231; 18.4 µM (inactive) with HT-29; 33.7 µM (inactive) in the assay with MDA-MB-435; 28.8 µM (inactive) in the assay on OVCAR-8. Also, the GI50 was > 50 µM (inactive) in the assay on HOP-62; > 50 µM (inactive) with SNB-19; > 50 µM (inactive) in the assay with RXF 393; 39.4 µM (inactive) with OVCAR-3; > 50 µM (inactive) in the assay on M14; 20.3 µM (inactive) in the assay with SF-295.

Turning to `O=C1c2ccccc2C(=O)c2c(NCC(O)CO)ccc(NCC(O)CO)c21` (configuration not stated), the GI50 in the assay with HCC 2998 is 72.6 µM (inactive); in the assay on UO-31, 17.8 µM (inactive); with SK-MEL-28 it was > 100 µM (inactive); in the assay on U-251, 61.2 µM (inactive); with K562 it was 35.2 µM (inactive); with UACC-62, 51.5 µM (inactive). For the same compound, the GI50 in the assay with SK-OV-3 was 40.9 µM (inactive); in the assay with SR, 61.4 µM (inactive); in the assay on OVCAR-5, > 100 µM (inactive); in the assay on MDA-MB-231 it was 97.9 µM (inactive); in the assay on HT-29, 56.6 µM (inactive); in the assay with MDA-MB-435 it was > 100 µM (inactive). Further, the GI50 in the assay with OVCAR-8 was 69.2 µM (inactive); in the assay with HOP-62, 61.1 µM (inactive); in the assay with SNB-19, 43.2 µM (inactive); with CCRF-CEM, 41.4 µM (inactive); in the assay on OVCAR-3, 79.6 µM (inactive).

Take `C1=N\c2ccc(cc2)-c2ccc(cc2)/N=C\c2ccc(cc2)OCc2cccc(n2)COc2ccc/1cc2`: the GI50 in the assay on UO-31 is > 100 µM (inactive); with SK-MEL-28, > 100 µM (inactive); with U-251, 45.5 µM (inactive); in the assay on K562 it was > 100 µM (inactive); in the assay with UACC-62, > 100 µM (inactive); with SK-OV-3 it was 61.2 µM (inactive). For the same compound, the GI50 with SR is > 100 µM (inactive); in the assay with OVCAR-5 it was > 100 µM (inactive); in the assay with MDA-MB-231, > 100 µM (inactive); with HT-29, > 100 µM (inactive); in the assay with MDA-MB-435 it was > 100 µM (inactive); with OVCAR-8, 25.1 µM (inactive). In addition, the GI50 in the assay with HOP-62 is 27.3 µM (inactive); with SNB-19, 38.9 µM (inactive); in the assay on CCRF-CEM it was 97.7 µM (inactive); in the assay with RXF 393, 42.2 µM (inactive); in the assay on OVCAR-3, > 100 µM (inactive); with M14, > 100 µM (inactive). Also, the GI50 in the assay with SF-295 is 79.4 µM (inactive).

For the compound `COc1ccc(NC(=O)CC(=O)N2N=C(N(c3ccccc3)c3ccccc3)CC2c2ccccc2)cc1` (configuration not stated), the GI50 in the assay with HCC 2998, with UO-31, with SK-MEL-28, in the assay on U-251, in the assay on K562 and in the assay on UACC-62 was > 100 µM (inactive) each time. In addition, the GI50 with SK-OV-3, in the assay with OVCAR-5, in the assay with MDA-MB-231, in the assay with HT-29, in the assay with MDA-MB-435 and with OVCAR-8 was > 100 µM (inactive) in each case. For the same compound, the GI50 in the assay on HOP-62, with SNB-19, in the assay on CCRF-CEM, with RXF 393, with OVCAR-3 and with M14 was > 100 µM (inactive) in each case. The GI50 with SF-295 was > 100 µM (inactive).

Take `CC(=O)NC(C)(C)C1CC=C(C)/C(=N\O)C1` (configuration not stated): the GI50 with HCC 2998, in the assay with UO-31, in the assay with SK-MEL-28, with U-251, in the assay on K562 and with UACC-62 was > 100 µM (inactive) in each case. For the same compound, the GI50 in the assay on SK-OV-3, in the assay on SR, with OVCAR-5, with MDA-MB-231, in the assay with HT-29 and with MDA-MB-435 was > 100 µM (inactive) each time. The GI50 in the assay on OVCAR-8, in the assay on HOP-62, in the assay on SNB-19, in the assay on CCRF-CEM, in the assay on OVCAR-3 and in the assay with M14 was > 100 µM (inactive) each time. The GI50 in the assay with SF-295 was > 100 µM (inactive).

With `Oc1ccc2ccccc2c1-c1nnc(CCCCCCCCc2nnc(-c3c(O)ccc4ccccc34)o2)o1`, the GI50 in the assay on HCC 2998 was 4.06 µM (inactive); in the assay with UO-31, 0.389 µM (active); with SK-MEL-28 it was 18.1 µM (inactive); with U-251, 1.05 µM (active); in the assay on K562, 0.955 µM (active); in the assay with UACC-62, 7.64 µM (inactive). Also, the GI50 in the assay on SK-OV-3 is 18.1 µM (inactive); in the assay with OVCAR-5, 6.32 µM (inactive); in the assay with MDA-MB-231, 3.52 µM (inactive); with HT-29, 13.4 µM (inactive); in the assay on MDA-MB-435, 4.24 µM (inactive); in the assay with OVCAR-8, 2.18 µM (inactive). Besides, the GI50 with HOP-62 is 1.59 µM (inactive); with SNB-19, 3.53 µM (inactive); with CCRF-CEM, 0.448 µM (active); in the assay on RXF 393 it was 3.48 µM (inactive); with OVCAR-3, 0.314 µM (active); with M14 it was 1.34 µM (inactive). The GI50 with SF-295 is 3.61 µM (inactive).

On to `Clc1ccc(-c2cc(-c3nc4ccccc4[nH]3)no2)cc1`, for which the GI50 in the assay on HCC 2998 is 18.6 µM (inactive); in the assay with UO-31 it was 19 µM (inactive); with SK-MEL-28, 19.3 µM (inactive); in the assay on K562, 19.8 µM (inactive); in the assay on UACC-62 it was 14.6 µM (inactive); with SK-OV-3, 18.6 µM (inactive). Moreover, the GI50 was 21.4 µM (inactive) in the assay with SR; 18.7 µM (inactive) in the assay with OVCAR-5; 18.6 µM (inactive) in the assay with MDA-MB-231; 18.2 µM (inactive) in the assay with HT-29; 17 µM (inactive) with MDA-MB-435; 33.8 µM (inactive) with OVCAR-8. In addition, the GI50 with HOP-62 was 19.5 µM (inactive); in the assay on SNB-19 it was 19.6 µM (inactive); in the assay on CCRF-CEM, 18.7 µM (inactive); with OVCAR-3, 18.5 µM (inactive); in the assay with M14, 18.4 µM (inactive); with SF-295 it was 17.3 µM (inactive).

For the compound `CN(c1ccccc1)S(=O)(=O)c1ccc([N+](=O)[O-])cc1`, the GI50 is > 100 µM (inactive) with UO-31; > 100 µM (inactive) with SK-MEL-28; > 100 µM (inactive) in the assay with U-251; > 100 µM (inactive) in the assay with SR; > 100 µM (inactive) with OVCAR-5; 79.3 µM (inactive) in the assay with MDA-MB-231. Besides, the GI50 with HT-29 is 69.5 µM (inactive); in the assay on MDA-MB-435, > 100 µM (inactive); in the assay on OVCAR-8, > 100 µM (inactive); with HOP-62, > 100 µM (inactive); in the assay on SNB-19, > 100 µM (inactive); with RXF 393, > 100 µM (inactive). The GI50 was > 100 µM (inactive) in the assay with OVCAR-3, 55.7 µM (inactive) in the assay with M14 and > 100 µM (inactive) with SF-295.

As to `C=CCN1C[C@@H](C)N([C@@H](c2ccccc2)c2ccc(C(=O)N(CC)CC)cc2)C[C@@H]1C`, the GI50 with UO-31, in the assay on SK-MEL-28, in the assay with U-251, in the assay on UACC-62, in the assay on SK-OV-3 and in the assay with SR was > 100 µM (inactive) each time. In addition, the GI50 in the assay on OVCAR-5, in the assay on MDA-MB-231, in the assay with HT-29, in the assay on MDA-MB-435, with OVCAR-8 and in the assay on HOP-62 was > 100 µM (inactive) in each case. The GI50 with SNB-19, in the assay with OVCAR-3, with M14 and in the assay on SF-295 was > 100 µM (inactive) each time.

In the case of `Cc1nccn1S(=O)(=O)c1ccc(Br)cc1Br`, the GI50 in the assay with UO-31 was 22.3 µM (inactive); in the assay on SK-MEL-28, 48.9 µM (inactive); in the assay on U-251 it was 44.7 µM (inactive); in the assay with K562 it was 29.1 µM (inactive); in the assay on UACC-62, 33.6 µM (inactive); in the assay with SK-OV-3, 41.8 µM (inactive). The GI50 is 24.7 µM (inactive) in the assay with SR; 35.1 µM (inactive) with OVCAR-5; 19.1 µM (inactive) in the assay on MDA-MB-231; 29.1 µM (inactive) in the assay on HT-29; 19.5 µM (inactive) in the assay with MDA-MB-435; 44.4 µM (inactive) in the assay on OVCAR-8. The GI50 with SNB-19 is 25.9 µM (inactive); in the assay on CCRF-CEM, 26.5 µM (inactive); in the assay on RXF 393, 23 µM (inactive); with OVCAR-3, 22.7 µM (inactive); with M14 it was 16.9 µM (inactive); in the assay with SF-295, 27.7 µM (inactive).

The values above are taken from ChEMBL document CHEMBL1201862, “PubChem BioAssay data set” (2004).
